Laboratory results: ChEMBL document CHEMBL3875178, “Discovery of oral-available resveratrol-caffeic acid based hybrids inhibiting acetylated and phosphorylated STAT3 protein” (Eur J Med Chem, 2016)

How the values were obtained:
[1] = Growth inhibition of human HT-29 cells after 48 hrs by MTT assay; format: functional, cell-based; conditions: HT-29, 48 h
[2] = Growth inhibition of human MDA-MB-231 cells after 48 hrs by MTT assay; format: functional, cell-based; conditions: MDA-MB-231, 48 h
[3] = tested on: Mus musculus; test: Toxicity in Kunming mouse implanted with mouse 4T1 cells assessed as body weight loss at 1 mg/kg, ip administered once in 4 days for 14 days measured during compound dosing; format: organism-based; conditions: in vivo
[4] = tested on: HT-29; test: Potency index, ratio of resveratrol IC50 to compound IC50 for human HT-29 cells; format: functional

Compound	IC50 [1] [µM]	IC50 [2] [µM]	Activity [3]	Ratio IC50 [4]
COc1cc(/C=C/c2ccc(NC(=O)/C=C/c3cccc(F)c3)cc2)cc(OC)c1	16.8	17.3	–	–
COc1cc(/C=C/c2ccc(NC(=O)/C=C/c3ccccn3)cc2)cc(OC)c1	6.12	3.4	–	–
COc1cccc2c1C(=O)c1c(O)c3c(c(O)c1C2=O)C[C@@](O)(C(=O)CO)C[C@@H]3O[C@H]1C[C@H](N)[C@H](O)[C@H](C)O1 [DOXORUBICIN]	–	–	Toxic	–
COc1cc(/C=C/c2ccc(NC(=O)/C=C/c3ccccc3)cc2)cc(OC)c1	1.75	2.01	–	–
COc1cc(/C=C/c2ccc(OC(=O)/C=C/c3ccc(C(F)(F)F)cc3)cc2)cc(OC)c1	9.09	6.91	–	–
COc1cc(/C=C/c2ccc(NC(=O)/C=C/c3ccccc3F)cc2)cc(OC)c1	2.82	2.38	–	–
COc1cc(/C=C/c2ccc(OC(=O)/C=C/c3ccc([N+](=O)[O-])cc3)cc2)cc(OC)c1	> 20	18	–	–
COc1cc(/C=C/c2ccc(NC(=O)/C=C/c3ccc(C(F)(F)F)cc3)cc2)cc(OC)c1	1.78	3.52	–	–
Oc1ccc(/C=C/c2cc(O)cc(O)c2)cc1 [RESVERATROL]	> 100	> 100	–	–
COc1cc(/C=C/c2ccc(NC(=O)/C=C/c3ccc(OC)c(OC)c3)cc2)cc(OC)c1	0.96	7.74	–	>50
COc1cc(/C=C/c2ccc(OC(=O)/C=C/c3ccc(F)cc3)cc2)cc(OC)c1	7.77	6.21	–	–
COc1cc(/C=C/c2ccc(NC(=O)/C=C/c3ccc(Cl)cc3)cc2)cc(OC)c1	10.3	14.1	–	–
